SMILES strings stand for the structures. Calls of active or inactive are those of the source. The calls are words filed in the database; no cut-off is given here.

The term EC50 denotes the midpoint of the concentration-response curve.

Assay [1] in a line: Photoprotection against UV light-induced Escherichia coli pEGFP-C1 DNA damage at 10 mM treated in cream formulation measured for 2 hrs by agarose gel electrophoresis. The class given is functional.
The next assay has as its system MCF-10A. The assay is described as follows: Cytotoxicity against human MCF10A cells assessed as cell viability after 72 hrs by MTT assay. The class given is cell-based. A general note: Tetrazolium dyes change colour on reduction, which living cells bring about.
The next assay relates to Vero. The assay is described as follows: Cytotoxicity against african green monkey Vero cells assessed as cell viability after 72 hrs by MTT assay. Particulars: Chlorocebus sabaeus. Type of assay: cell-based.
A further assay deals with RPMI-8226. The assay can be described thus: Photoprotection against UV light-induced DNA damage in human RPMI8226 cells at 10 mM treated in cream formulation measured for 3 hrs by agarose gel electrophoresis. Type of assay: functional, cell-based.
Assay [2] can be described thus: Photoprotection against UV light-induced Escherichia coli pEGFP-C1 DNA damage at 10 mM treated in 1N NaOH solution measured for 2 hrs by agarose gel electrophoresis. Type of assay: functional.
Assay [3] in a line: Cytotoxicity against human fibroblasts assessed as cell viability after 72 hrs by MTT assay. Type of assay: cell-based. The note with it: Fibroblast.
The nature of assay [4]: Cytotoxicity against mouse Cloudman S91 cells assessed as cell viability after 72 hrs by MTT assay. The class given is cell-based. The note with it: S91, 72 h.

For the compound `Cc1cn(CCCn2cc(C)c(=O)[nH]c2=O)c(=O)[nH]c1=O`, the result (in assay [1]; with RPMI-8226; in assay [2]) was Active. Moreover, the EC50 (with MCF-10A; with Vero; in assay [3]; in assay [4]) was > 100 µM each time.
